# Data from patent publication US10894797B2, “Fused tricyclic ring derivatives as SRC homology-2 phosphatase inhibitors” (Nikang Therapuetics, Inc., priority 2018, dated 2021).
# Target: SHP2 (Homo sapiens (Human), UniProt Q06124)
# Experiment: SHP2 allosteric inhibition assay (DiFMUP substrate, bisphos-IRS1 peptide activation)
# Format: biochemical
# Conditions: 0.33 nM SHP2, 0.5 μM bisphos-IRS1 peptide, 100 uM DiFMUP, room temperature
# Procedure: At the basal state, SHP2 is auto-inhibited and access of substrates to the catalytic site is blocked by the […] interactions between the SH2 domains and the PTP domain. When bis-tyrosyl-phosphorylated peptides bind to SH2 domain of SHP2, the PTP domain becomes available for substrate recognition and reaction catalysis and SHP2 is allosterically activated. SHP2 catalytic activity can be measured using a fluorogenic artificial substrate DiFMUP.
# The phosphatase reactions were carried out at room temperature in 384-well black polystyrene plates (Greiner Bio-One, Cat #784076) using assay buffers containing 60 mM HEPES, pH 7.2, 75 mM NaCl, 75 mM KCl, 1 mM EDTA, 0.05% P-20, and 5 mM DTT.
# 0.33 nM of SHP2 was co-incubated with of 0.5 μM of bisphos-IRS 1 peptide (sequence: H2N-LN(pY)IDLDLV(dPEG8)LST(pY)ASINFQK-amide) and various concentrations of compounds for 30-60 min at room temperature. Then the reaction was initiated by addition of the surrogate substrate DiFMUP (Invitrogen, Cat #D6567, 100 uM final).
# The real-time conversion of DiFMUP to DiFMU (6,8-difluoro-7-hydroxyl-4-methyl-coumarin) was measured every 5 min for 30 min using a microplate reader (CLARIOstar, BMG Labtech) with excitation and emission wavelengths of 340 nm and 450 nm, respectively. Initial reaction rates were determined by linear fitting of the data and the inhibitor dose response curves were analyzed using normalized IC50 regression curve fitting with control-based normalization.
SMILES,IC50 [nM],Shp2 IC50(nM)
"C[C@@H]1OCC2(CCN(c3ncc(Sc4ccnc5c4OC[C@@H]4C[C@H](O[C@@H]6CCOC6)CN54)nc3CO)CC2)[C@@H]1N [Compound 12, (3-((3S,4S)-4-amino-3-methyl-2-oxa-8-azaspiro[4.5]decan-8-yl)-6-(((6aS,8S)-8-(((R)-tetrahydrofuran-3-yl)oxy)-6a,7,8,9-tetrahydro-6H-pyrido[3,2-b]pyrrolo[1,2-d][1,4]oxazin-4-yl)thio)pyrazin-2-yl)methanol]",12,
"C[C@@H]1OCC2(CCN(c3ncc(Sc4ccnc5c4OC[C@H]4CCCN54)nc3CO)CC2)[C@@H]1N [Compound 2, (3-((3S,4S)-4-amino-3-methyl-2-oxa-8-azaspiro[4.5]decan-8-yl)-6-(((R)-6a,7,8,9-tetrahydro-6H-pyrido[3,2-b]pyrrolo[1,2-d][1,4]oxazin-4-yl)thio)pyrazin-2-yl)methanol]",4,
"COCCO[C@H]1C[C@H]2COc3c(Sc4cnc(N5CCC6(CC5)CO[C@@H](C)[C@H]6N)c(CO)n4)ccnc3N2C1 [Compound 15, (3-((3S,4S)-4-amino-3-methyl-2-oxa-8-azaspiro[4.5]decan-8-yl)-6-(((6aS,8S)-8-(2-methoxyethoxy)-6a,7,8,9-tetrahydro-6H-pyrido[3,2-b]pyrrolo[1,2-d][1,4]oxazin-4-yl)thio)pyrazin-2-yl)methanol]",10,
"C[C@@H]1OCC2(CCN(c3ncc(Sc4ccnc5c4OC[C@@H]4C[C@H](F)CN54)nc3CO)CC2)[C@@H]1N [Compound 3, (3-((3S,4S)-4-amino-3-methyl-2-oxa-8-azaspiro[4.5]decan-8-yl)-6-(((6aS,8S)-8-fluoro-6a,7,8,9-tetrahydro-6H-pyrido[3,2-b]pyrrolo[1,2-d][1,4]oxazin-4-yl)thio)pyrazin-2-yl)methanol]",13,
"C[C@@H]1OCC2(CCN(c3ncc(Sc4ccnc5c4OC[C@@H]4C[C@H](O[C@H]6CCOC6)CN54)nc3CO)CC2)[C@@H]1N [Compound 11, (3-((3S,4S)-4-amino-3-methyl-2-oxa-8-azaspiro[4.5]decan-8-yl)-6-(((6aS,8S)-8-(((S)-tetrahydrofuran-3-yl)oxy)-6a,7,8,9-tetrahydro-6H-pyrido[3,2-b]pyrrolo[1,2-d][1,4]oxazin-4-yl)thio)pyrazin-2-yl)methanol]",14,
"C[C@@H]1OCC2(CCN(c3ncc(Sc4ccnc5c4OC[C@@H]4COCCN54)nc3CO)CC2)[C@@H]1N [Compound 27, (3-((3S,4S)-4-amino-3-methyl-2-oxa-8-azaspiro[4.5]decan-8-yl)-6-(((S)-6a,7,9,10-tetrahydro-6H-[1,4]oxazino[4,3-d]pyrido[3,2-b][1,4]oxazin-4-yl)thio)pyrazin-2-yl)methanol]",,one of 26 and 27 is 10 and the other is 8
"C[C@@H]1OCC2(CCN(c3ncc(Sc4ccnc5c4OC[C@@H]4C[C@@](C)(O)CN54)nc3CO)CC2)[C@@H]1N (single isomer, unassigned) [Compound 19]",,one of 21 and 22 is 13 and the other is 8

# The next lines start with results.
IC50 [nM],SMILES,Shp2 IC50(nM)
3.9,"COCOC[C@H]1C[C@H]2COc3c(Sc4cnc(N5CCC6(CC5)Cc5ncccc5[C@H]6N)cn4)ccnc3N2C1 [Compound 46, (S)-1′-(5-(((6aS,8S)-8-((methoxymethoxy)methyl)-6a,7,8,9-tetrahydro-6H-pyrido[3,2-b]pyrrolo[1,2-d][1,4]oxazin-4-yl)thio)pyrazin-2-yl)-5,7-dihydrospiro[cyclopenta[b]pyridine-6,4′-piperidin]-5-amine]",
3.7,"COCOC[C@@H]1C[C@@H]2COc3c(Sc4cnc(N5CCC6(CC5)CO[C@@H](C)[C@H]6N)c(CO)n4)ccnc3N2C1 [Compound 52, (3-((3S,4S)-4-amino-3-methyl-2-oxa-8-azaspiro[4.5]decan-8-yl)-6-(((6aR,8R)-8-((methoxymethoxy)methyl)-6a,7,8,9-tetrahydro-6H-pyrido[3,2-b]pyrrolo[1,2-d][1,4]oxazin-4-yl)thio)pyrazin-2-yl)methanol]",
13,"C[C@@H]1OCC2(CCN(c3ncc(Sc4ccnc5c4OC[C@@H]4C[C@H](S(C)(=O)=O)CN54)nc3CO)CC2)[C@@H]1N [Compound 21, (3-((3S,4S)-4-amino-3-methyl-2-oxa-8-azaspiro[4.5]decan-8-yl)-6-(((6aS,8S)-8-(methylsulfonyl)-6a,7,8,9-tetrahydro-6H-pyrido[3,2-b]pyrrolo[1,2-d][1,4]oxazin-4-yl)thio)pyrazin-2-yl)methanol]",
9.4,"COC[C@H]1C[C@H]2COc3c(Sc4ncc(N5CCC6(CC5)CO[C@@H](C)[C@H]6N)nc4N)ccnc3N2C1 [Compound 45, (3S,4S)-8-(6-amino-5-(((6aS,8S)-8-(methoxymethyl)-6a,7,8,9-tetrahydro-6H-pyrido[3,2-b]pyrrolo[1,2-d][1,4]oxazin-4-yl)thio)pyrazin-2-yl)-3-methyl-2-oxa-8-azaspiro[4.5]decan-4-amine]",
4.2,"COCOC[C@H]1C[C@H]2COc3c(Sc4cnc(N5CCC6(CC5)CO[C@@H](C)[C@H]6N)c(CO)n4)ccnc3N2C1 [Compound 31, (3-((3S,4S)-4-amino-3-methyl-2-oxa-8-azaspiro[4.5]decan-8-yl)-6-(((6aS,8S)-8-((methoxymethoxy)methyl)-6a,7,8,9-tetrahydro-6H-pyrido[3,2-b]pyrrolo[1,2-d][1,4]oxazin-4-yl)thio)pyrazin-2-yl)methanol]",
5.7,"COC[C@H]1C[C@H]2COc3c(Sc4cnc(N5CCC6(CC5)COC5(CCC5)[C@H]6N)c(CO)n4)ccnc3N2C1 [Compound 38, (3-((S)-5-amino-13-oxa-9-azadispiro[3.1.5^6.2^4]tridecan-9-yl)-6-(((6aS,8S)-8-(methoxymethyl)-6a,7,8,9-tetrahydro-6H-pyrido[3,2-b]pyrrolo[1,2-d][1,4]oxazin-4-yl)thio)pyrazin-2-yl)methanol]",
8,"C[C@@H]1OCC2(CCN(c3ncc(Sc4ccnc5c4OC[C@@H]4C[C@@H](OC(N)=O)CN54)nc3CO)CC2)[C@@H]1N [Compound 23, (6aS,8R)-4-((5-((3 S,4S)-4-amino-3-methyl-2-oxa-8-azaspiro[4.5]decan-8-yl)-6-(hydroxymethyl)pyrazin-2-yl)thio)-6a,7,8,9-tetrahydro-6H-pyrido[3,2-b]pyrrolo[1,2-d][1,4]oxazin-8-yl Carbamate]",
2.3,"C[C@@H]1OCC2(CCN(c3ncc(Sc4ccnc5c4OC[C@@H]4C[C@H](COCC6CC6)CN54)nc3CO)CC2)[C@@H]1N [Compound 33, (3-((3S,4S)-4-amino-3-methyl-2-oxa-8-azaspiro[4.5]decan-8-yl)-6-(((6aS,8S)-8-((cyclopropylmethoxy)methyl)-6a,7,8,9-tetrahydro-6H-pyrido[3,2-b]pyrrolo[1,2-d][1,4]oxazin-4-yl)thio)pyrazin-2-yl)methanol]",
